From ChEMBL document CHEMBL1201862, “PubChem BioAssay data set” (2004)
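Compound exposure: 48 hours, 5 concentrations, 96-well plates. GI50 marks 50% less growth.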 Active and inactive are the calls of the source. No stated cut-off is given here; in the data, active = GI50 up to about 1.1 µM and inactive = higher.

Legend:
Experiment in all cases: NCI-60 cell line screen, 48 h
CAKI-1 = system: CAKI-1
UO-31 = system: UO-31
OVCAR-4 = system: OVCAR-4
SNB-19 = system: SNB-19
K562 = system: K562
RPMI-8226 = system: RPMI-8226
U-251 = system: U-251
NCI-H460 = system: NCI-H460
SR = system: SR
T47D = system: T47D
SF-539 = system: SF-539
Malme-3M = system: Malme-3M
SK-MEL-5 = system: SK-MEL-5
EKVX = system: EKVX
OVCAR-5 = system: OVCAR-5
MDA-MB-231 = system: MDA-MB-231
TK-10 = system: TK-10
MOLT-4 = system: MOLT-4
SK-MEL-2 = system: SK-MEL-2
HOP-62 = system: HOP-62
RXF 393 = system: RXF 393
M14 = system: M14
IGROV-1 = system: IGROV-1
UACC-62 = system: UACC-62
HL-60 = system: HL-60
786-0 = system: 786-0
KM12 = system: KM12
NCI-H23 = system: NCI-H23
MCF7 = system: MCF7
COLO 205 = system: COLO 205
NCI/ADR-RES = system: NCI/ADR-RES
Hs-578T = system: Hs-578T
SF-268 = system: SF-268
OVCAR-8 = system: OVCAR-8
NCI-H226 = system: NCI-H226
HT-29 = system: HT-29
OVCAR-3 = system: OVCAR-3
ACHN = system: ACHN
SW-620 = system: SW-620
HCT-15 = system: HCT-15
A549 = system: A549
HCT-116 = system: HCT-116
HCC 2998 = system: HCC 2998
SK-OV-3 = system: SK-OV-3
PC-3 = system: PC-3
SF-295 = system: SF-295
LOX IMVI = system: LOX IMVI
NCI-H522 = system: NCI-H522
MDA-MB-435 = system: MDA-MB-435
BT-549 = system: BT-549
CCRF-CEM = system: CCRF-CEM
MDA-N = system: MDA-N
SK-MEL-28 = system: SK-MEL-28
HOP-92 = system: HOP-92
A498 = system: A498
SN12C = system: SN12C
UACC-257 = system: UACC-257
SNB-75 = system: SNB-75

## CC(=O)O[C@H]1C(=O)[C@@]2(C)[C@H]([C@H](OC(=O)c3ccccc3)[C@]3(O)C[C@H](OC(=O)[C@H](O)[C@@H](NC(=O)c4ccccc4)C4CCCCC4)C(C)=C1C3(C)C)[C@]1(OC(C)=O)CO[C@@H]1C[C@@H]2O
CAKI-1
  GI50: 0.409 µM (active)
UO-31
  GI50: 0.313 µM (active)
OVCAR-4
  GI50: 0.0227 µM (active)
SNB-19
  GI50: 0.013 µM (active)
K562
  GI50: < 0.01 µM (active)
RPMI-8226
  GI50: < 0.01 µM (active)
U-251
  GI50: < 0.01 µM (active)
NCI-H460
  GI50: < 0.01 µM (active)
SR
  GI50: < 0.01 µM (active)
T47D
  GI50: < 0.01 µM (active)
SF-539
  GI50: < 0.01 µM (active)
Malme-3M
  GI50: 23.6 µM (inactive)
SK-MEL-5
  GI50: < 0.01 µM (active)
EKVX
  GI50: 3 µM (inactive)
OVCAR-5
  GI50: < 0.01 µM (active)
MDA-MB-231
  GI50: < 0.01 µM (active)
TK-10
  GI50: 0.0352 µM (active)
MOLT-4
  GI50: < 0.01 µM (active)
SK-MEL-2
  GI50: 17.3 µM (inactive)
HOP-62
  GI50: < 0.01 µM (active)
RXF 393
  GI50: < 0.01 µM (active)
M14
  GI50: < 0.01 µM (active)
IGROV-1
  GI50: < 0.01 µM (active)
UACC-62
  GI50: < 0.01 µM (active)
HL-60
  GI50: < 0.01 µM (active)
786-0
  GI50: < 0.01 µM (active)
KM12
  GI50: < 0.01 µM (active)
NCI-H23
  GI50: < 0.01 µM (active)
MCF7
  GI50: < 0.01 µM (active)
COLO 205
  GI50: < 0.01 µM (active)
NCI/ADR-RES
  GI50: 2.96 µM (inactive)
Hs-578T
  GI50: < 0.01 µM (active)
SF-268
  GI50: < 0.01 µM (active)
OVCAR-8
  GI50: < 0.01 µM (active)
NCI-H226
  GI50: < 0.01 µM (active)
HT-29
  GI50: < 0.01 µM (active)
OVCAR-3
  GI50: < 0.01 µM (active)
ACHN
  GI50: 0.288 µM (active)
SW-620
  GI50: < 0.01 µM (active)
HCT-15
  GI50: 0.12 µM
A549
  GI50: < 0.0173 µM (active)
HCT-116
  GI50: < 0.01 µM (active)
HCC 2998
  GI50: < 0.01 µM (active)
SK-OV-3
  GI50: < 0.01 µM (active)
PC-3
  GI50: 0.0468 µM (active)
SF-295
  GI50: < 0.01 µM (active)
LOX IMVI
  GI50: < 0.01 µM (active)
NCI-H522
  GI50: < 0.01 µM (active)
MDA-MB-435
  GI50: < 0.01 µM (active)
BT-549
  GI50: 0.0143 µM (active)
CCRF-CEM
  GI50: < 0.01 µM (active)
MDA-N
  GI50: < 0.01 µM (active)
SK-MEL-28
  GI50: 34.1 µM (inactive)
HOP-92
  GI50: < 0.0174 µM (active)

## CC(=O)NNc1nc(C)c(C(/C=C/c2ccc3c(c2)OCO3)=N/NC(=O)c2ccncc2)s1
CAKI-1
  GI50: > 100 µM (inactive)
UO-31
  GI50: > 100 µM (inactive)
OVCAR-4
  GI50: > 100 µM (inactive)
SNB-19
  GI50: > 100 µM (inactive)
K562
  GI50: > 100 µM (inactive)
RPMI-8226
  GI50: > 100 µM (inactive)
U-251
  GI50: > 100 µM (inactive)
NCI-H460
  GI50: > 100 µM (inactive)
SR
  GI50: > 100 µM (inactive)
T47D
  GI50: > 100 µM (inactive)
SF-539
  GI50: > 100 µM (inactive)
Malme-3M
  GI50: > 100 µM (inactive)
SK-MEL-5
  GI50: > 100 µM (inactive)
EKVX
  GI50: 62.5 µM (inactive)
OVCAR-5
  GI50: > 100 µM (inactive)
MDA-MB-231
  GI50: > 100 µM (inactive)
TK-10
  GI50: > 100 µM (inactive)
MOLT-4
  GI50: > 100 µM (inactive)
A498
  GI50: > 100 µM (inactive)
SK-MEL-2
  GI50: > 100 µM (inactive)
HOP-62
  GI50: > 100 µM (inactive)
RXF 393
  GI50: > 100 µM (inactive)
M14
  GI50: > 100 µM (inactive)
IGROV-1
  GI50: > 100 µM (inactive)
UACC-62
  GI50: > 100 µM (inactive)
HL-60
  GI50: > 100 µM (inactive)
786-0
  GI50: > 100 µM (inactive)
KM12
  GI50: > 100 µM (inactive)
SN12C
  GI50: > 100 µM (inactive)
NCI-H23
  GI50: > 100 µM (inactive)
MCF7
  GI50: > 100 µM (inactive)
NCI/ADR-RES
  GI50: > 100 µM (inactive)
Hs-578T
  GI50: > 100 µM (inactive)
SF-268
  GI50: > 100 µM (inactive)
OVCAR-8
  GI50: > 100 µM (inactive)
NCI-H226
  GI50: > 100 µM (inactive)
HT-29
  GI50: > 100 µM (inactive)
OVCAR-3
  GI50: > 100 µM (inactive)
ACHN
  GI50: > 100 µM (inactive)
SW-620
  GI50: > 100 µM (inactive)
HCT-15
  GI50: > 100 µM
A549
  GI50: > 100 µM (inactive)
HCT-116
  GI50: > 100 µM (inactive)
HCC 2998
  GI50: > 100 µM (inactive)
SK-OV-3
  GI50: > 100 µM (inactive)
PC-3
  GI50: > 100 µM (inactive)
SF-295
  GI50: > 100 µM (inactive)
LOX IMVI
  GI50: > 100 µM (inactive)
UACC-257
  GI50: > 100 µM (inactive)
NCI-H522
  GI50: > 100 µM (inactive)
SNB-75
  GI50: > 100 µM (inactive)
MDA-MB-435
  GI50: > 100 µM (inactive)
BT-549
  GI50: > 100 µM (inactive)
CCRF-CEM
  GI50: > 100 µM (inactive)
MDA-N
  GI50: > 100 µM (inactive)
SK-MEL-28
  GI50: > 100 µM (inactive)
HOP-92
  GI50: > 100 µM (inactive)
